Assay results published in patent US8357701B2, “Galactokinase inhibitors” (University of Miami, priority 2007, dated 2013).

What was measured:
Assay type in all cases: biochemical
[1] = biological target: T1, human galactokinase (GALK) (Homo sapiens, UniProt P51570); assay: two-step luminescence-based (Kinase-Glo) high-throughput GALK assay; details: ATP-γ-S from 0 to 13.3 μM, ATP constant at 5 μM; FIG. 3C
T1 construct: made in house; host or cells: Escherichia coli HMS174 (DE3), plasmid pET15b
T1 sequence (P51570 whole entry): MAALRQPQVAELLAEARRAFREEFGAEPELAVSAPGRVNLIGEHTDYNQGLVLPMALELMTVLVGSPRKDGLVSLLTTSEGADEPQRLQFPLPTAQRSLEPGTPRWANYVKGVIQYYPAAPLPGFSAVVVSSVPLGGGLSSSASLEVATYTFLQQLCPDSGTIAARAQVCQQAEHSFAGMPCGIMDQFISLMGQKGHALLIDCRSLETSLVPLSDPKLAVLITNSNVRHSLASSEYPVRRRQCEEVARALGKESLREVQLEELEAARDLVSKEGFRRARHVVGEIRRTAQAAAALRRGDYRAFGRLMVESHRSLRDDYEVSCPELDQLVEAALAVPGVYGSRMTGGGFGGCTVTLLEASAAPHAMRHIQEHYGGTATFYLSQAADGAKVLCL
Method: Using the Kinase-Glo™ reagent (Promega, Madison, Wis.), a miniaturized, two-step HTS assay for GALK was developed. […] After 60 minutes at room temperature (22° C.), 30 μL of Kinase Glo™ (Promega) was added, and luminescence was measured within 30 min using an Envision Multilabel Plate Reader (Perkin Elmer). In the course of 12 days, nearly 50,000 compounds from various libraries of small molecules with diverse structural scaffolds were screened for their inhibitory properties of GALK activity in vitro. […] The reaction was then allowed to proceed at room temperature (22° C.) for 60 min. Then, 30 μL of Kinase-Glo™ was added to stop the reaction, and luminescence was measured 15 to 30 min later using the Envision Multilabel Plate Reader (PerkinElmer). 50,000 small molecules were screened, in duplicate, for inhibitory properties against purified GALK. […] In short, duplicate luminescence measurements were corrected for background measurements using the method described by Seiler et al. (Nucl. Acids Res 2007). […] After 60 min at room temperature (22° C.), 30 μL of Kinase-Glo™ was added, and luminescence was measured within 30 min using an Envision Multilabel Plate Reader (PerkinElmer, Waltham, Mass.). […] Then, 30 μl of Kinase-Glo™ was added to stop the reaction, and luminescence was measured 15 to 30 min later using the Envision Multilabel Plate Reader (PerkinElmer). […]

[2] = biological target: T2, human GALK (Homo sapiens, UniProt P51570); assay: standard pyruvate kinase/lactate dehydrogenase-coupled GALK assay; details: dose response, FIG. 7; values somewhat lower than in the luminescence assay; no numbers given
T2 construct: made in house; host or cells: Escherichia coli HMS174 (DE3), plasmid pET15b
T2 sequence (P51570 whole entry): as above
Source text: As the percentage of substrate conversion can have significant impact on the accuracy of IC50 determination, the preferred approach is to determine reaction rates at initial velocity (i.e., zero substrate conversion). […] In this assay, the amount of galactose present in the reaction is kept in excess, whereas ATP consumed by the galactokinase reaction is recycled by the pyruvate kinase reaction.
As the percentage of substrate conversion can have significant impact on the accuracy of IC50 determination, the preferred approach is to determine reaction rates at initial velocity (i.e., zero substrate conversion). […] The dose response of the selected compounds was analyzed using the standard pyruvate kinase/lactate dehydrogenase-Coupled assay. In this assay, the amount of galactose present in the reaction was kept in excess, whereas ATP consumed by the galactokinase reaction was recycled by the pyruvate kinase reaction.

[3] = biological target: T3, purified recombinant E. coli CDP-ME kinase (Escherichia coli, UniProt P62615); assay: CDP-ME kinase assay (luminescence-based); details: CDP-ME as substrate; increasing compound concentration; FIG. 10B
T3 construct: made in house; host or cells: E. coli HMS174
T3 sequence (P62615 1-283): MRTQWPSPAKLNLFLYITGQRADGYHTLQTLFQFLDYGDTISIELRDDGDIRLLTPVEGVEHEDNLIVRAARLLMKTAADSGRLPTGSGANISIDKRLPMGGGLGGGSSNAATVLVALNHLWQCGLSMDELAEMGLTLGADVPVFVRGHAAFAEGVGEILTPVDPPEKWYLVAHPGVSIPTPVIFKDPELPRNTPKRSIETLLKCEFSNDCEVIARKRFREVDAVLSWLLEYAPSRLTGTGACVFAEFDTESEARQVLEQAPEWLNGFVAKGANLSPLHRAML
Method: Detailed Protocol for CDP-ME Kinase Assay
Protocol: Mix I was prepared using 1 microL for MVK. If dilutions are to be made, dilute in 1× buffer to 1 microL. Mix II was prepared just before use, as CMP-ME and ATP may deteriorate. Final CMP-ME concentration was chosen at 50 microM for the sake of economics and kept on ice until it was dispensed.
At least 4 replicates per condition were used in the experiment. Mix I was dispensed on the plate with a pipette. Mix II was then added and the plate covered with foil. The plates was incubated at 37° C. for 15 minutes and Kinase-Glo® (Promega, Madison Wis.) was added, the plate covered with foil, and incubated at RT for 15 minutes. Measurements were taken as described for the GALK protocol, the data were plotted and the enzyme concentration with reading within linear range just above baseline was selected.
Protocol to test for inhibition: Compound stored at −80° C. was slowly thawed. Stock was at 10 mM concentration.
These were incubated for 1 hour with MVK. Each dilution was then be pipetted into wells (40 microL each). 20 microL of Mix II was added to each well and covered with foil. The plates were incubated at 37° C., for 15 minutes, then Kinase-Glo® (Promega, Madison, Wis.) was added, plates were covered with foil, and incubated at room temperature (RT) for 15 minutes. The data was plotted and the IC50 was calculated.

Row | inhibition of GALK activity by ATP mimetic [1] | Compound | IC50 values confirmed in coupled assay [2] | inhibition of E. coli CDP-ME kinase [3]
1 | acted as a GALK inhibitor | Nc1ncnc2c1ncn2[C@@H]1O[C@H](COP(=O)(O)OP(=O)(O)OP(O)(O)=S)[C@@H](O)[C@H]1O [ATP-γ-S, adenosine 5′-O-(3-thio-)triphosphate] |  | 
2 |  | CC(C)(C)C(=O)Nc1ccc2c(c1)C(=O)C(=O)c1ccccc1-2 [compound 1, Tyrosine Phosphatase CD45 inhibitor] | confirmed | 
3 |  | CC1(c2ccccc2)CC(C)(C)N2C(=O)/C(=C3/SC(=O)NC3=O)c3cccc1c32 (stereo not drawn) [compound 3] | confirmed | 
4 |  | Oc1c(Cl)cc(Cl)c(Cl)c1Cc1c(O)c(Cl)cc(Cl)c1Cl [compound 9, Hexachlorophene] | confirmed | inhibits E. coli CDP-ME kinase
5 |  | COC1=C(N)C(=O)c2nc(-c3nc(C(=O)O)c(C)c(-c4ccc(OC)c(OC)c4O)c3N)ccc2C1=O [compound 24, Streptonigrin] | confirmed | 
